Read-outs that look alike come from different tables or passages of the source.

This is an account of results in patent publication US5985900A, “Metalloproteinase inhibitors, pharmaceutical compositions containing them and their pharmaceutical uses” (Agouron Pharmaceuticals, Inc., priority 1998, dated 1999).

Type in all cases: biochemical
The target of one assay is human stromelysin (Sln) (Homo sapiens, UniProt P08254). The assay is described as follows: In vitro MMP inhibition assay (hydrolysis of fluorogenic MCA peptide substrate), stromelysin. The method, then: The catalytic domain of human stromelysin (Sln) was obtained by expression and purification of a C-terminally truncated prostromelysin-1 from E. coli host BL21 (see Marcy et al. Biochem., 1991, 30, 6476). The subsequent activation of the mature form (Sln) was completed with 2 mM APMA for 1 hour at 37° C., followed by separation using a sizing column.
Chain of human stromelysin (Sln) (P08254 100-272 limits assumed): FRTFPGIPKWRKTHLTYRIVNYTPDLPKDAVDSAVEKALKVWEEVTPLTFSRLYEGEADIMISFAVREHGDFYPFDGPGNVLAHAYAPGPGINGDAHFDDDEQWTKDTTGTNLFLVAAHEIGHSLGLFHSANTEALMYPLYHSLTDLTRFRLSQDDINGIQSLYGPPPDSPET
(§1) Assays were performed in assay buffer (50 mM Tricine pH 7.5, 200 mM sodium chloride, 10 mM calcium chloride, 0.5 mM zinc acetate containing 2% dimethyl sulfoxide (DMSO)) once the substrate and inhibitor were diluted into it. Stock solutions of inhibitors were prepared in 100% DMSO. Stock solutions of the substrate were prepared in 100% DMSO at a concentration of 6 mM.
(§2) The assay method was based on the hydrolysis of MCA-Pro-Leu-Gly-Leu-DPA-Ala-Arg-NH2 (American Peptide Co.) at 37° C. (see Knight, C. G. et al., FEBS, 1992, 296, 263-266). The fluorescence changes were monitored with a Perkin-Elmer LS-50B fluorimeter using an excitation wavelength of 328 nm and an emission wavelength of 393 nm. The substrate concentration used in the assays was 10 μM. The inhibitor was diluted into the assays from a solution in 100% DMSO, and controls substituted an equal volume of DMSO so that the final DMSO concentration from inhibitor and substrate dilution in all assays was 2%. […] Proper determination of steady-state rates of substrate cleavage required assay lengths of 60 minutes to allow for complete equilibration of the enzyme-inhibitor complex.
(§3) The Km for the MCA peptide substrate with the matrix metalloproteinases is quite high and exceeds its solubility under assay conditions. Consequently, the apparent Ki (Ki,app) was determined to describe the strength of inhibition. However, in this case, Ki,app would be essentially equal to Ki since [S]<<Km. For the determination of Ki,app, the concentration of the inhibitor was varied at a constant and low concentration of substrate and the steady-state rates of fluorescence change determined. In most cases absorptive quench due to the presence of ligand was not observed. For slow-binding inhibitors, onset of inhibition curves were collected for at least 45 minutes so that equilibrium was established. Steady-state rates of fluorescence change were obtained by fitting a curve to an equation for a single exponential decay containing a linear phase. The fitted value of the linear phase was taken as the steady-state rate. The steady-state rates were fitted to the Michaelis equation describing competitive inhibition by non-linear methods. Data resulting from tight-binding inhibition was analyzed, and Ki,app determined by fitting the data to the tight-binding equation of Morrison (Biochem. Biophys. Acta, vol. 185, pp. 269-286 (1969)) by non-linear methods.
(§4) All Ki values are in nM units.

The target in assay [1] is human progelatinase A (GelA) (Homo sapiens, UniProt P08253). The assay is described as follows: In vitro MMP inhibition assay (hydrolysis of fluorogenic MCA peptide substrate), gelatinase A. The method, then: The catalytic and fibronectin-like portion of human progelatinase A (GelA) was expressed as a fusion protein with ubiquitin in E. Coli. Assays were carried out on autocatalytically activated material.
Chain of human progelatinase A (GelA) (P08253 110-446 limits assumed): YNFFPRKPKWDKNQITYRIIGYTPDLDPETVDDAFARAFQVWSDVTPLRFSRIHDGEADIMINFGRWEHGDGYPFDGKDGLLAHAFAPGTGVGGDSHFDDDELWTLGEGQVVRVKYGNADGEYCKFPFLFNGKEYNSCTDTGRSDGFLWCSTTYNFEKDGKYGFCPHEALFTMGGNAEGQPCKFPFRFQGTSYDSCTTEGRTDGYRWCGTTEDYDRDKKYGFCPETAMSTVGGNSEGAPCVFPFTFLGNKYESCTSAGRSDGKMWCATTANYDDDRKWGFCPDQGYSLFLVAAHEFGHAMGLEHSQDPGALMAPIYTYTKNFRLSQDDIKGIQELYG
as §1, §2, §3, §4

Assay [2] concerns the target T1, human collagenase-3 (Coll3) (Homo sapiens, UniProt P45452).
T1 construct: catalytic domain liberated with APMA
The assay is described as follows: In vitro MMP inhibition assay (hydrolysis of fluorogenic MCA peptide substrate), collagenase-3. Conditions: Table 1; Ki,app; MCA peptide substrate 10 μM, 37° C., pH 7.5, 2% DMSO. How it is done: The propeptide and catalytic domain of human collagenase-3 (Coll3) was expressed in E. coli as an N-terminal fusion protein with ubiquitin. After purification of the fusion from inclusion bodies, the catalytic domain was liberated by treatment with 2 mM APMA at room temperature overnight. Final purification was completed using copper chelate chromatography.
as §1, §2, §3, §4

[3] abbreviates: Table 1, Ki,app, MCA peptide substrate 10 μM, 37° C., pH 7.5, 2% DMSO, read-out: Sin Ki.
Where [4] appears, read: Table 1, Ki,app, MCA peptide substrate 10 μM, 37° C., pH 7.5, 2% DMSO, read-out: Gel A.

With `Cc1ccc(Oc2ccc(S(=O)(=O)N[C@@H](C(=O)NO)C(C)(C)SCc3ccccn3)cc2)cc1` [Example 9g, 2(S)--N-hydroxy-3-methyl-3-(pyrid-2-yl)methylsulfanyl-2-[(4-(4-methylphenoxy)benzenesulfonyl)amino]butanamide], the Ki worked out at 0.73 nM on human stromelysin (Sln) (setting [3]) and 0.036 nM in assay [1] (setting [4]).

With `CC(C)(C)[C@@H](NS(=O)(=O)c1ccc(Oc2ccc(F)cc2)cc1)C(=O)O` [Example 3q, N-[4-(4-Fluorophenoxy)benzenesulfonyl]-D-tert-leucine], the Ki in assay [2] was 1180 nM; on human stromelysin (Sln) (setting [3]), 14000 nM; in assay [1] (setting [4]), 150 nM.

With `CC(C)(C)[C@@H](NS(=O)(=O)c1ccc(Oc2ccccn2)cc1)C(=O)O` [Example 4d], the Ki in assay [2] was 27000 nM; at human stromelysin (Sln) (setting [3]) it was 274000 nM; in assay [1] (setting [4]), 11000 nM.

For `CSC(C)(C)[C@@H](NS(=O)(=O)c1ccc(Oc2ccc(Cl)cc2)cc1)C(=O)O` [Example 6b, S-Methyl--N--[4-(4-chlorophenoxy)benzenesulfonyl]-D-penicillamine], the figures for the Ki (in assay [2]; on human stromelysin (Sln) (setting [3]); in assay [1] (setting [4])) were 696 nM, 17000 nM and 215 nM, respectively.

For the compound `CC(C)(SCc1ccccn1)[C@@H](NS(=O)(=O)c1ccc(Oc2ccc(F)cc2)cc1)C(=O)O` [Example 3c, N-[4-(4-Fluorophenoxy)benzenesulfonyl]--S--[(pyrid-2-yl)methyl]-D-penicillamine], the Ki in assay [2] turned out to be 110 nM; on human stromelysin (Sln) (setting [3]), 2550 nM; in assay [1] (setting [4]) it was 44 nM.

Take `CSC(C)(C)[C@@H](NS(=O)(=O)c1ccc(Oc2ccccc2)cc1)C(=O)NO` [Example 9a, 2(S)--N--Hydroxy-3-methyl-3-methylsulfanyl-2-[(4-phenoxybenzenesulfonyl)amino]butanamide]: the Ki stood at 0.067 nM in assay [2], 2.2 nM at human stromelysin (Sln) (setting [3]) and 0.069 nM in assay [1] (setting [4]).

In the case of `CC(C)(SCc1ccccn1)[C@@H](NS(=O)(=O)c1ccc(Oc2ccc(C#N)cc2)cc1)C(=O)O` [Example 3h, N-[4-(4-Cyanophenoxy)benzenesulfonyl]--S--[(pyrid-2-yl)methyl]-D-penicillamine], the Ki was found to be 258 nM in assay [2], 8200 nM at human stromelysin (Sln) (setting [3]) and 73 nM in assay [1] (setting [4]).

As to `CC(C)(SCc1nccn1Cc1ccccc1)[C@@H](NS(=O)(=O)c1ccc(Oc2ccc(F)cc2)cc1)C(=O)O` [Example 3a, S--[(1-Benzyl-1H-imidazol-2-yl)methyl]--N--[4-(4-fluorophenoxy)benzenesulfonyl]-D-penicillamine], the Ki in assay [2] came to 200 nM; at human stromelysin (Sln) (setting [3]), 1300 nM; in assay [1] (setting [4]), 11 nM.

`Cc1ccc(Oc2ccc(S(=O)(=O)N[C@@H](C(=O)O)C(C)(C)SCc3ccccn3)cc2)cc1` [Example 3g, N-[4-(4-Methylphenoxy)benzenesulfonyl]--S--[(pyrid-2-yl)methyl]-D-penicillamine]: the Ki in assay [2] worked out at 117 nM; on human stromelysin (Sln) (setting [3]), 1310 nM; in assay [1] (setting [4]), 10 nM.

As to `Cc1cc(CSC(C)(C)[C@@H](NS(=O)(=O)c2ccc(Sc3ccncc3)cc2)C(=O)NO)no1` [Example 10b, 2(S)--N-hydroxy-3-methyl-3-(5-methylisoxazol-3-yl)methylsulfanyl-2-[(4-{(pyrid-4-yl)sulfanyl}benzenesulfonyl)amino]butanamide], the Ki is 1.6 nM in assay [2], 38 nM at human stromelysin (Sln) (setting [3]) and 0.75 nM in assay [1] (setting [4]).

In the case of `COC(=O)CCSC(C)(C)[C@@H](NS(=O)(=O)c1ccc(Oc2ccc(F)cc2)cc1)C(=O)O` [Example 7, S--[2-(Methoxycarbonyl)ethyl]--N--[4-(4-fluorophenoxy)benzenesulfonyl]-D-penicillamine], the figures for the Ki (on human stromelysin (Sln) (setting [3]); in assay [1] (setting [4])) were 10500 nM and 165 nM, respectively.

With `Cc1cc(CSC(C)(C)[C@@H](NS(=O)(=O)c2ccc(Oc3ccc(F)cc3)cc2)C(=O)NO)no1` [Example 9c, 2(S)--N-hydroxy-3-methyl-3-(5-methylisoxazol-3-yl)methylsulfanyl-2-[(4-(4-fluorophenoxy)benzenesulfonyl)amino]butanamide], the Ki at human stromelysin (Sln) (setting [3]) was determined as 0.63 nM; in assay [1] (setting [4]), 0.024 nM.

As to `CC(C)(SCCO)[C@@H](NS(=O)(=O)c1ccc(Oc2ccc(F)cc2)cc1)C(=O)O` [Example 8a, S--[2-Hydroxyethyl]--N--[4-(4-fluorophenoxy)benzenesulfonyl]-D-penicillamine], the values for the Ki (at human stromelysin (Sln) (setting [3]); in assay [1] (setting [4])) were 12500 nM and 373 nM, respectively.

As to `Cc1cc(CSC(C)(C)[C@@H](NS(=O)(=O)c2ccc(Oc3ccncc3)cc2)C(=O)NO)no1` [Example 10a, 2(S)--N-hydroxy-3-methyl-3-(5-methylisoxazol-3-yl)methylsulfanyl-2-[(4-(pyrid-4-yloxy)benzenesulfonyl)amino]butanamide], the Ki at human stromelysin (Sln) (setting [3]) stood at 11.4 nM; in assay [1] (setting [4]) it was 0.32 nM.

For the compound `Cc1ccc(S(=O)(=O)NCC(=O)NO)cc1` [Compound 13, N-hydroxy-2-(toluene-4-sulfonylamino)acetamide, reference compound], the Ki at human stromelysin (Sln) (Table 2, comparative example, read-out: STROMELYSIN Ki) is 3400 nM; in assay [1] (Table 2, comparative example, gelatinase A, read-out: GELATINASE Kj), 3500 nM.

As for `CC(C)(SCCC(N)=O)[C@@H](NS(=O)(=O)c1ccc(Oc2ccc(F)cc2)cc1)C(=O)O` [Example 8b, S--[2-(Aminocarbonyl)ethyl]--N--[4-(4-fluorophenoxy)benzenesulfonyl]-D-penicillamine], the values for the Ki (on human stromelysin (Sln) (setting [3]); in assay [1] (setting [4])) were 5700 nM and 334 nM, respectively.

Regarding `CC(C)(SCc1ccccn1)[C@@H](NS(=O)(=O)c1ccc(Oc2ccc(C(F)(F)F)cc2)cc1)C(=O)O` [Example 3j, N-[4-(4-(trifluoromethyl)phenoxy)benzenesulfonyl]--S--[(pyrid-2-yl)methyl]-D-penicillamine], the values for the Ki (on human stromelysin (Sln) (setting [3]); in assay [1] (setting [4])) were 2950 nM and 48 nM, respectively.

Regarding `Cn1ccnc1CSC(C)(C)[C@@H](NS(=O)(=O)c1ccc(Oc2ccc(Br)cc2)cc1)C(=O)O` [Example 3o], the Ki on human stromelysin (Sln) (setting [3]) turned out to be 2150 nM; in assay [1] (setting [4]), 34 nM.

On to `Cn1ccnc1CSC(C)(C)[C@@H](NS(=O)(=O)c1ccc(Oc2ccc(Br)cc2)cc1)C(=O)NO` [Example 9n, 2(S)--N-hydroxy-3-methyl-3-(1-methyl-1H-imidazol-2-yl)-methylsulfanyl-2-[(4-(4-bromophenoxy)benzenesulfonyl)amino]butanamide], for which the values for the Ki (on human stromelysin (Sln) (setting [3]); in assay [1] (setting [4])) were 0.2 nM and 0.11 nM, respectively.

Take `CC(C)(O)[C@@H](NS(=O)(=O)c1ccc(Oc2ccc(Br)cc2)cc1)C(=O)O` [Example 3s, N-[4-(4-Bromophenoxy)benzenesulfonyl]-D--(β-hydroxy)valine]: the Ki on human stromelysin (Sln) (setting [3]) was found to be 348000 nM; in assay [1] (setting [4]), 900 nM.

Take `Cc1cc(CSC(C)(C)[C@@H](NS(=O)(=O)c2ccc(Oc3ccc(Br)cc3)cc2)C(=O)NO)no1` [Example 9d, 2(S)--N-hydroxy-3-methyl-3-(5-methylisoxazol-3-yl)methylsulfanyl-2-[(4-(4-bromophenoxy)benzenesulfonyl)amino]butanamide]: the Ki in assay [2] was determined as 0.013 nM; at human stromelysin (Sln) (setting [3]), 0.24 nM.

For `Cc1cc(CSC(C)(C)[C@@H](NS(=O)(=O)c2ccc(Oc3ccncc3)cc2)C(=O)O)no1` [Example 4b, S--[(5-Methylisoxazol-3-yl)methyl]--N--[4(pyrid-4-yl)oxybenzenesulfonyl]-D-penicillamine], the Ki was 751 nM at human stromelysin (Sln) (setting [3]) and 27 nM in assay [1] (setting [4]).

Consider `CC(C)(SCc1ccccn1)[C@@H](NS(=O)(=O)c1ccc(Oc2ccc(I)cc2)cc1)C(=O)NO` [Example 9f, 2(S)--N-hydroxy-3-methyl-3-(pyrid-2-yl)methylsulfanyl-2-[(4-(4-iodophenoxy)benzenesulfonyl)amino]butanamide], for which the Ki in assay [2] was 0.015 nM; at human stromelysin (Sln) (setting [3]) it was 0.29 nM.
